Data as given in patent US8232308B2, “Methods for treating a disease in which Rho kinase is involved” (UBE Industries, Ltd., priority 2003, dated 2012).
Counter-ions that a name gives are not always drawn.

Compound | melting point
CC(C)(N)c1ccc(-c2ccc3[nH]nc(CO)c3c2)cc1 (as salt: hydrochloride) [Compound 5-14, 5-[4-(1-Amino-1-methylethyl)phenyl]-3-hydroxymethyl-1H-indazole dihydrochloride] | 238 to 242 °C (dec.)
CC(C)(N)c1ccc(-c2ccc3[nH]ncc3c2-c2cn[nH]c2)cc1 (as salt: hydrochloride) [Compound 5-64, 5-[4-(1-Amino-1-methylethyl)phenyl]-4-(pyrazol-4-yl)-1H-indazole trihydrochloride] | 259 to 267 °C (dec.)
CCC(N)(CC)c1ccc(-c2ccc3[nH]ncc3c2N)cc1 (as salt: hydrochloride) [Compound 5-22, 4-Araino-5-[4-(1-amino-1-ethylpropyl)phenyl]-1H-indazole trihydrochloride] | 197 to 199 °C (dec.)
CC(=O)n1ncc2ccc(-c3ccc(C(C)(C)N)cc3)cc21 (as salt: hydrochloride) [Compound 5-38, 1-Acetyl-6-[4-(1-amino-1-methylethyl)phenyl]-1H-indazole dihydrochloride] | 225 to 230 °C
CCCOc1c(-c2ccc(C(C)(C)N)cc2)ccc2[nH]ncc12 (as salt: hydrochloride) [Compound 5-52, 5-[4-(1-Amino-1-methylethyl)phenyl]-4-n-propoxy-1H-indazole dihydrochloride] | 237 to 243 °C (dec.)
NCc1ccc(-c2ccc3[nH]ncc3c2[N+](=O)[O-])cc1 (as salt: hydrochloride) [Compound 5-19, 5-[4-(Aminomethyl)phenyl]-4-nitro-1H-indazole dihydrochloride] | 269 to 274 °C (dec.)
CC(C)(N)c1cnc(-c2ccc3[nH]ncc3c2)c(Cl)c1 (as salt: hydrochloride) [Compound 5-27, 5-[5-(1-Amino-1-methylethyl)-3-chloropyridin-2-yl]-1H-indazole trihydrochloride] | 179 to 182 °C
CC(C)(N)c1ccc(-c2ccc3[nH]ncc3c2N2CCCCC2)cc1 (as salt: hydrochloride) [Compound 5-41, 5-[4-(1-Amino-1-methylethyl)phenyl]-4-(piperidin-1-yl)-1H-indazole trihydrochloride] | 205 to 208 °C (dec.)
CC(=O)n1ncc2cc(-c3ccc(C(C)(C)N)cc3)ccc21 (as salt: hydrochloride) [Compound 5-2, 1-Acetyl-5-[4-(1-amino-1-methylethyl)phenyl]-1H-indazole dihydrochloride] | 247 to 250 °C
CC(C)(N)c1ccc(-c2ccc3[nH]ncc3c2OC2CC2)nc1 (as salt: hydrochloride) [Compound 5-70, 5-[5-(1-Amino-1-methylethyl)pyridin-2-yl]-4-cyclo-propyloxy-1H-indazole trihydrochloride] | 203 to 205 °C (dec.)
CC(C)Oc1c(-c2ccc(C(C)(C)N)cc2)ccc2[nH]ncc12 (as salt: hydrochloride) [Compound 5-40, 5-[4-(1-Amino-1-methylethyl)phenyl]-4-isopropoxy-1H-indazole dihydrochloride] | 242 to 246 °C (dec.)
CC(C)(N)c1ccc(-c2ccc3cn[nH]c3c2)cc1 (as salt: hydrochloride) [Compound 5-37, 6-[4-(1-Amino-1-methylethyl)phenyl]-1H-indazole dihydrochloride] | 265 to 269 °C
CCC(N)(CC)c1ccc(-c2ccc3[nH]ncc3c2OC(F)F)cc1 (as salt: hydrochloride) [Compound 5-72, 5-[4-(1-Amino-1-ethylpropyl)phenyl]-4-difluoro-methoxy-1H-indazole dihydrochloride] | 234 to 237 °C
CCOc1c(-c2ccc(C(C)(C)N)cn2)ccc2[nH]ncc12 (as salt: hydrochloride) [Compound 5-47, 5-[5-(1-Amino-1-methylethyl)pyridin-2-yl]-4-ethoxy-1H-indazole trihydrochloride] | 198 to 201 °C
CC(C)(N)c1ccc(-c2ccc3[nH]ncc3c2C2CC2)nc1 (as salt: hydrochloride) [Compound 5-29, 5-[5-(1-Amino-1-methylethyl)pyridin-2-yl]-4-cyclo-propyl-1H-indazole trihydrochloride] | 209 to 213 °C (dec.)
CCN(CC)c1c(-c2ccc(C(C)(C)N)cc2)ccc2[nH]ncc12 (as salt: hydrochloride) [Compound 5-31, 5-[4-(1-Amino-1-methylethyl)phenyl]-4-diethylamino-1H-indazole trihydrochloride] | 182 to 184 °C (dec.)
CC(C)(N)c1ccc(-c2ccc3[nH]ncc3c2C#N)cc1 (as salt: hydrochloride) [Compound 5-36, 5-[4-(1-Amino-1-methylethyl)phenyl]-4-cyano-1H-indazole monohydrochloride] | 270 to 272 °C
CC(C)(N)c1ccc(-c2ccc3[nH]nc(C#N)c3c2)cc1 (as salt: hydrochloride) [Compound 5-13, 5-[4-(1-Amino-1-methylethyl)phenyl]-3-cyano-1H-indazole dihydrochloride] | 224 to 227 °C (dec.)

Compound | melting point
CC(C)(N)c1ccc(-c2ccc3[nH]ncc3c2O)nc1 (as salt: hydrochloride) [Compound 5-69, 5-[5-(1-Amino-1-methylethyl)pyridin-2-yl]-4-hydroxy-1H-indazole trihydrochloride] | 255 to 260 °C (dec.)
CC(C)(N)c1ccc(-c2ccc3[nH]ncc3c2N2CCCC2)cc1 (as salt: hydrochloride) [Compound 5-42, 5-[4-(1-Amino-1-methylethyl)phenyl]-4-(pyrrolidin-1-yl)-1H-indazole trihydrochloride] | 218 to 224 °C (dec.)
CC(C)(N)c1ccc(-c2ccc3[nH]nc(N)c3c2)cc1 (as salt: hydrochloride) [Compound 5-11, 3-Amino-5-[4-(1-amino-1-methylethyl)phenyl]-1H-indazole trihydrochloride] | 220 to 222 °C (dec.)
CC(C)(N)c1ccc(-c2ccc3[nH]ncc3c2-c2ccncc2)cc1 (as salt: hydrochloride) [Compound 5-61, 5-[4-(1-Amino-1-methylethyl)phenyl]-4-(pyridin-4-yl)-1H-indazole trihydrochloride] | 266 to 269 °C (dec.)
CCCCOc1c(-c2ccc(C(C)(C)N)cc2)ccc2[nH]ncc12 (as salt: hydrochloride) [Compound 5-55, 5-[4-(1-Amino-1-methylethyl)phenyl]-4-n-butoxy-1H-indazole dihydrochloride] | 227 to 229 °C (dec.)
CC(C)(N)c1ccc(-c2ccc3[nH]nc(C(=O)O)c3c2)cc1 (as salt: hydrochloride) [Compound 5-9, 5-[4-(1-Amino-1-methylethyl)phenyl]-3-carboxy-1H-indazole monohydrochloride] | 274 to 280 °C (dec.)
C=C(C)c1n[nH]c2ccc(-c3ccc(C(C)(C)N)cc3)cc12 (as salt: trifluoroacetate) [Compound 5-15, 5-[4-(1-Amino-1-methylethyl)phenyl]-3-(1-methyl-vinyl)-1H-indazole monotrifluoroacetate] | 221 to 225 °C (dec.)
CC(C)(N)c1ccc(-c2ccc3[nH]ncc3c2-c2cnco2)cc1 (as salt: hydrochloride) [Compound 5-66, 5-[4-(1-Amino-1-methylethyl)phenyl]-4-(oxazol-5-yl)-1H-indazole dihydrochloride] | 212 to 214 °C (dec.)
CC(C)(N)c1ccc(-c2ccc3[nH]nc(C(N)=O)c3c2)cc1 (as salt: hydrochloride) [Compound 5-10, 3-Aminocarbonyl-5-[4-(1-amino-1-methylethyl)phenyl]-1H-indazole monohydrochloride] | 258 to 261 °C (dec.)
CC(C)(N)c1ccc(-c2ccc3[nH]ncc3c2-n2cccc2)cc1 (as salt: hydrochloride) [Compound 5-39, 5-[4-(1-Amino-1-methylethyl)phenyl]-4-(pyrrol-1-yl)-1H-indazole dihydrochloride] | 244 to 247 °C (dec.)
COc1c(-c2ccc(C(C)(C)N)cc2)ccc2[nH]ncc12 (as salt: hydrochloride) [Compound 5-44, 5-[4-(1-Amino-1-methylethyl)phenyl]-4-methoxy-1H-indazole dihydrochloride] | 258 to 261 °C (dec.)
CCC(N)(CC)c1ccc(-c2ccc3[nH]ncc3c2OC2CC2)nc1 (as salt: hydrochloride) [Compound 5-71, 5-[5-(1-Amino-1-ethylpropyl)pyridin-2-yl]-4-cyclo-propyloxy-1H-indazole trihydrochloride] | 207 to 209 °C (dec.)
CCCOc1c(-c2ccc(C(C)(C)N)cn2)ccc2[nH]ncc12 (as salt: hydrochloride) [Compound 5-58, 5-[5-(1-Amino-1-methylethyl)pyridin-2-yl]-4-n-propoxy-1H-indazole trihydrochloride] | 194 to 198 °C (dec.)
CNc1c(-c2ccc(C(C)(C)N)cc2)ccc2[nH]ncc12 (as salt: hydrochloride) [Compound 5-7, 5-[4-(1-Amino-1-methylethyl)phenyl]-4-methylamino-1H-indazole trihydrochloride] | 202 to 206 °C (dec.)
CC(N)c1ccc(-c2ccc3[nH]ncc3c2N(C)C)cc1 (stereo not drawn) (as salt: hydrochloride) [Compound 5-26, 5-[4-(1-Aminoethyl)phenyl]-4-dimethylamino-1H-indazole trihydrochloride] | 180 to 182 °C (dec.)
CCOc1c(-c2ccc(C(C)(C)N)cc2)ccc2[nH]ncc12 (as salt: hydrochloride) [Compound 5-49, 5-[4-(1-Amino-1-methylethyl)phenyl]-4-ethoxy-1H-indazole dihydrochloride] | 248 to 256 °C (dec.)
CC(C)(C)OC(=O)NC(C)(C)c1ccc(-c2ccc3nn(C4CCCCO4)cc3c2-c2cc[nH]n2)cc1 (stereo not drawn) [Compound 30, 5-[4-(1-tert-butoxycarbonylamino-1-methylethyl)phenyl]-4-(pyrazol-3-yl)-2-(tetrahydropyran-2-yl)-2H-indazole] | 99 to 105 °C
CN(C)c1c(-c2ccc(CN)cc2)ccc2[nH]ncc12 (as salt: hydrochloride) [Compound 5-23, 5-[4-(Aminomethyl)phenyl]-4-dimethylamino-1H-indazole trihydrochloride] | 188 to 192 °C (dec.)
